Tests used:
VEGF mRNA = VEGF mRNA expression in wild type murine embryonic fibroblasts (quantitative PCR); format: cell-based; details: hypoxic conditions (1% O2); 1, 10 and 100 μM; vs. hypoxia control; FIG. 1A
Description: (§1) Total RNA was isolated from tissues and cells by using TRIzol™ Reagent (Invitrogen) and the RNeasy kit (Qiagen), respectively. 1 μg RNA was used for reverse transcription using SuperScript II First-Strand Synthersis System (Invitrogen). cDNA's were amplified in a SYR Green or TaqMan Universal Master Mix (Applied Biosystems). Quantitative PCR (qPCR) was performed on ABI Prism 7700 sequence detection system. PCR conditions are: 10 min at 95° C., 40 cycles of 15 seconds at 95° C. and 1 minute at 60° C. The relative amount of mRNA was calculated after normalization to β-actin.
(§2) Cells were cultured in DMEM (#11965-092, Invitrogen) supplemented with 10% fetal bovine serum (Invitrogen), 100 U/mL penicillin and […] streptomycin. For glucose deprivation, DMEM without glucose (#11966-025, Invitrogen) was used.
(§3) Mouse embryonic fibroblasts (MEFs) were isolated from E12.5 embryos and immortalized by stable transfection with SV40 large T antigen.

[1] = test system: phosphoglycerate kinase (PGK) mRNA; assay: Phosphoglycerate kinase (PGK) mRNA expression in wild type murine embryonic fibroblasts (quantitative PCR); format: cell-based; details: hypoxic conditions (1% O2); 1, 10 and 100 μM; vs. hypoxia control; FIG. 2A
Description: as §1, §2, §3

Pmel17 mRNA = assay: Evaluation of lung metastases (Pmel17 mRNA, nested PCR) in B16F10 tumor-bearing mice; format: in vivo; details: FIG. 5; stabilizer I.P., GM-CSF I.T.; vs. vehicle control
Description: Lung metastases were evaluated by detection of mRNA for melanocyte-specific proteins within the lungs of tumor-bearing mice. B16F10 tumor-bearing mice were treated with GM-CSF and/or the disclosed HIF-2α stabilizer, as depicted in FIG. 3. At the time of sacrifice, lungs were excised and flash-frozen in liquid nitrogen. Frozen lungs were homogenized in liquid nitrogen and the pulverized material was dissolved in TRIzol™ reagent (Invitrogen). […] The melanocyte-specific Pmel17 was detected by nested PCR using a modification of the protocol described by Tsukamoto et al. For the initial reaction, 30 cycles of PCR were carried out (95° C. for 1 minute, 58° C. for 1 min, 72° C. for 1 min) in a 20 μL reaction volume containing 2 μL of cDNA. […] Data were analyzed according to the comparative threshold method and normalized against the GAPDH internal control transcript. Results are semi-quantitative and represent the fold difference in transcript levels in vehicle-treated control mice as compared with levels in mice treated with the disclosed HIF-2α stabilizer and/or GM-CSF.
Lung metastases were evaluated by detection of mRNA for melanocyte-specific proteins within the lungs of tumor-bearing mice. […] Data were analyzed according to the comparative threshold method and normalized against the β-actin internal control transcript. […]

sVEGFR-1 = sVEGFR-1 transcription in bone marrow-derived macrophages from LysMcre control and HIF-2α^flox/flox/LysMcre mice; format: cell-based; details: FIG. 11F
Text: HIF-2α^flox/flox mice (originally developed by Dr. Celeste Simon, University of Pennsylvania) and LysMcre recombinase mice (originally developed by Irmgard Foerster, University of Duesseldorf) (both purchased from The Jackson Laboratory, Bar Harbor, Me.) were crossed to generate mice homozygous for both LysMcre and the floxed HIF-2α allele. LysMcre recombinase mice, which express no floxed alleles, were used as controls. Deletion of HIF-2α in HIF-2α^flox/flox/LysMcre macrophages, but not the LysMcre control macrophages, was confirmed at the transcript level by real-time PCR.
To generate bone marrow-derived macrophages (BDMs), femoral bone marrow was isolated and progenitor cells were plated in RPMI-1640 supplemented with 10% FBS, 1% PSA, 10 μg/mL of polymyxin B, and 20 ng/mL of recombinant murine M-CSF. Cells were cultured for 5 days with the addition of fresh M-CSF every other day. […]
Human monocytes were left untreated or were stimulated with 100 ng/mL GM-CSF at normoxia or at 0.5% O2. […] Data were analyzed according to the comparative threshold method and normalized against the β-actin internal control transcript. Results are semi-quantitative and represent the fold difference in transcript levels in a particular sample as compared with levels in untreated cells from the same donor. […]

O=C(O)CNC(=O)c1ncc(-c2cccc(F)c2)cc1O [disclosed HIF-2α stabilizer, {[5-(3-Fluorophenyl)-3-hydroxypyridine-2-carbonyl]amino}acetic acid]
VEGF mRNA (relative amount) (VEGF mRNA): dramatic reduction
PGK mRNA (relative amount) [1]: dramatic reduction
relative metastasis to the lung as measured by Pmel17 mRNA expression (Pmel17 mRNA): reduced metastasis
sVEGFR-1 transcription (sVEGFR-1; HIF-2α-deficient macrophages, p=0.881): not
sVEGFR-1 transcription (sVEGFR-1; control macrophages, p=0.036): induced
